# Test results as given in patent US10851053B2, “Chemical compounds” (GlaxoSmithKline Intellectual Property Development Limited, priority 2016, dated 2020).
# Test system: ATF4 translation (ATF4 pathway), SH-SY5Y-ATF4-NanoLuc cells
# Experiment: ATF4 cell based assay (ATF4 5'-UTR NanoLuc luciferase reporter, Thapsigargin induced cellular stress)
# Details: SH-SY5Y-ATF4-NanoLuc cells challenged with Thapsigargin for 14-18 hours; average of two or more experimental runs; read-out: average ATF4 pathway inhibitory activity (IC50)
# From the text: The ATF4 reporter assay measures the effect of Thapsigargin induced cellular stress on ATF4 expression. For this reporter assay, a stable cell line was created by transfecting SH-SY5Y cells with a plasmid containing the NanoLuc® luciferase gene fused to the 5′-UTR of ATF4, under the control of the CMV promoter. The ATF4 5′-UTR contains two open reading frames which mediate the cellular stress-dependent translation of the reporter gene. Clones stably expressing the reporter construct were isolated and selected based on the luminescence response to thapsigargin and inhibition of this signal by test compounds. Briefly, SH-SY5Y-ATF4-NanoLuc cells were challenged with Thapsigargin for 14-18 hours to determine the stress effect with or without test compounds.
# Cells were propagated in growth media consisting of 90% DMEM F12 (InVitrogen #11320-033), 10% Fetal Bovine Serum (Gibco #10438-026), 5 mM Glutamax (Gibco #35050-061), 5 mM Hepes, (Gibco #15630-080), and 0.5 mg/ml Geneticin (Gibco #10131-027). Cells were prepared for the assay by removing all media from cells, washing the plated cells with phosphate buffered saline, and detached by adding a solution comprised of 10% Tryple express solution (InVitrogen12604-021) and 90% enzyme-free cell dissociation buffer HANKS base (Gibco 13150-016). The trypsin was deactivated by adding assay media comprised of 90% phenol-red free DMEM F12 (InVitrogen, 11039), 10% Fetal Bovine Serum (Gibco #10438-026), (5 mM Glutamax (Gibco #35050-061), 5 mM Hepes, (Gibco #15630-080), and 0.5 mg/ml Geneticin (Gibco #10131-027). Suspended cells were spun down at 300 g for 5 min, the supernatant was removed and the cell pellet was suspended in warm media (30-37° C.) comprised as above at (1e6 cell/ml).
# Assay plates were prepared by adding 250 nL of compound stock solution in 100% DMSO to each well, followed by dispensing 20 microliters/well cell suspension to deliver 15-20 k cell/well. Cells were incubated for 1 hour at 37° C. Then, 5 μL of 1.5 μM or 1 μM of Thapsigargin (final concentration: 200-300 nM) was added to each well of cells. Assay plates containing cells were incubated for 14-18 hours at 37° C.
# The measurement of luciferase produced by the ATF4 constructs was measured as follows. Aliquots of the Nano-Glo reagent (Nano-Glo® Luciferase Assay Substrate, Promega, N113, Nano-Glo® Luciferase Assay Buffer, Promega, N112 (parts of Nano-Glo® Luciferase Assay System, N1150) were brought to room temperature, the substrate and buffer were mixed according to manufacturer's instructions. The cell plates were equilibrated to room temperature. 25 microliters/well of the mixed Nano-Glo reagent were dispensed into assay wells and pulse spun to settle contents and the plate was sealed with film. The plates were incubated at room temperature for 1 hour before detecting luminescence on an Envision plate reader.
# Compounds of the invention are tested for activity against ATF4 translation in the above assay.
row,SMILES,IC50 [nM]
1,"O=C(COc1ccc(Cl)cc1)NCC1CCN(C(=O)CCOc2ccc(Cl)cc2)C1 (centres unmarked) [Example 14, 2-(4-chlorophenoxy)-N-((1-(3-(4-chlorophenoxy)propanoyl)pyrrolidin-3-yl)methyl)acetamide]",< 100
2,"Cc1cc(OCCCN2CCC(CNC(=O)COc3ccc(Cl)cc3)C2)ccc1Cl (centres unmarked) [Example 57, N-((1-(3-(4-chloro-3-methylphenoxy)propyl)pyrrolidin-3-yl)methyl)-2-(4-chlorophenoxy)acetamide]",< 100
3,"O=C(COc1ccc(Cl)cc1)NCC1CCN(C(=O)N2CCc3cc(Cl)ccc3C2)C1 (centres unmarked) [Example 24, N-((1-(6-chloro-1,2,3,4-tetrahydroisoquinoline-2-carbonyl)pyrrolidin-3-yl)methyl)-2-(4-chlorophenoxy)acetamide]",101 to 1000
4,"O=C(COc1ccc(Cl)cc1)NCC1CCN(CCCOc2ccc(Cl)cc2F)C1 (centres unmarked) [Example 62, N-((1-(3-(4-chloro-2-fluorophenoxy)propyl)pyrrolidin-3-yl)methyl)-2-(4-chlorophenoxy)acetamide]",< 100
5,"CC1C[C@H](CNC(=O)COc2ccc(Cl)cc2)CN1CCCOc1ccc(Cl)cc1 (stereo partly drawn) [Example 58, 2-(4-chlorophenoxy)-N-(((3R)-1-(3-(4-chlorophenoxy)propyl)-5-methylpyrrolidin-3-yl)methyl)acetamide]",101 to 1000
6,"Cc1cc(Cl)ccc1OCCCN1CCC(CNC(=O)COc2ccc(Cl)cc2)C1 (centres unmarked) [Example 67, N-((1-(3-(4-chloro-2-methylphenoxy)propyl)pyrrolidin-3-yl)methyl)-2-(4-chlorophenoxy)acetamide]",101 to 1000
7,"CC1(CNC(=O)COc2ccc(Cl)cc2)CCN(CCOc2ccc(Cl)cc2)C1 (centres unmarked) [Example 43, 2-(4-chlorophenoxy)-N-((1-(2-(4-chlorophenoxy)ethyl)-3-methylpyrrolidin-3-yl)methyl)acetamide]",< 100
8,"O=C(COc1ccc(Cl)nc1)NCC1CCN(C(=O)COc2ccc(Cl)cc2)C1 (centres unmarked) [Example 19, N-((1-(2-(4-chlorophenoxy)acetyl)pyrrolidin-3-yl)methyl)-2-((6-chloropyridin-3-yl)oxy)acetamide]",1000 to 10000
9,"O=C(COc1ccc(Cl)cn1)N[C@H]1[C@@H]2CN(CCCOc3ccc(Cl)cc3)C[C@@H]21 [Example 52, N-((1R,5S,6s)-3-(3-(4-chlorophenoxy)propyl)-3-azabicyclo[3.1.0]hexan-6-yl)-2-((5-chloropyridin-2-yl)oxy)acetamide]",< 100
10,"O=C(NCC1CCN(C(=O)COc2ccc(Cl)cc2)C1)C1Cc2cc(Cl)ccc2O1 (centres unmarked) [Example 18, 5-chloro-N-((1-(2-(4-chlorophenoxy)acetyl)pyrrolidin-3-yl)methyl)-2,3-dihydrobenzofuran-2-carboxamide]",101 to 1000
11,"O=C(COc1ccc(Cl)cc1)NC[C@H]1CCN(CCCOc2ccc(Cl)cc2)C1 [Example 73, (R)-2-(4-chlorophenoxy)-N-((1-(3-(4-chlorophenoxy)propyl)pyrrolidin-3-yl)methyl)acetamide]",< 100
12,"O=C(COc1ccc(Cl)cc1)NC1CCN(C(=O)COc2ccc(Cl)cc2)C1 (centres unmarked) [Example 7, 2-(4-chlorophenoxy)-N-(1-(2-(4-chlorophenoxy)acetyl)pyrrolidin-3-yl)acetamide]",1000 to 10000
13,"O=C(COc1ccc(Cl)cc1)NCC1CN(CCCOc2ccc(Cl)cc2)CC1O (centres unmarked) [Example 80, 2-(4-chlorophenoxy)-N-((1-(3-(4-chlorophenoxy)propyl)-4-hydroxypyrrolidin-3-yl)methyl)acetamide]",< 100
14,"O=C(COc1ccc(Cl)cc1)NC1C[C@@H]2CN(C(=O)COc3ccc(Cl)cc3)CC12 (stereo in doubt) [Example 32, 2-(4-chlorophenoxy)-N-((1S,5R)-3-(2-(4-chlorophenoxy)acetyl)-3-azabicyclo[3.2.0]heptan-6-yl)acetamide]",< 100
